Data as given in PubChem BioAssay AID248 (DTP/NCI, 2004).
Values joined by “and” are separate entries in the source; they are usually repeats but may differ in a detail not shown here. Equal values may be shown once. Inconclusive results and toxic doses are left out. No stated cut-off is given here; in the data, active means T/C of 150% or more; inactive means T/C below 125%.

Test system: L1210 leukemia ip in BDF1 mice, survival T/C
Assay: NCI In Vivo Anticancer Drug Screen. Data for tumor model L1210 Leukemia (intraperitoneal) in B6D2F1 (BDF1) mice
Conditions: endpoint: mean survival time, higher = longer survival
Outline: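 Read-out is survival time, reported as the treated-group measurement over the vehicle-control measurement.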

[1] = dose: 25.0 mg/kg/injection, schedule: Q01DX009 (ip), vehicle: water
[2] = dose: 50.0 mg/kg/injection, schedule: Q01DX009 (ip), vehicle: water
[3] = dose: 100.0 mg/kg/injection, schedule: Q01DX009 (ip), vehicle: water
[4] = dose: 100.0 mg/kg/injection, schedule: Q04DX003 (ip), vehicle: Klucel (hydroxypropylcellulose) (HPC)
[5] = dose: 200.0 mg/kg/injection, schedule: Q01DX009 (ip), vehicle: water
[6] = dose: 200.0 mg/kg/injection, schedule: Q04DX003 (ip), vehicle: Klucel (hydroxypropylcellulose) (HPC)
[7] = dose: 400.0 mg/kg/injection, schedule: Q01DX009 (ip), vehicle: water
[8] = dose: 400.0 mg/kg/injection, schedule: Q04DX003 (ip), vehicle: Klucel (hydroxypropylcellulose) (HPC)
[9] = dose: 100.0 mg/kg/injection, schedule: Q01DX001 (ip), vehicle: saline
[10] = dose: 200.0 mg/kg/injection, schedule: Q01DX001 (ip), vehicle: saline
[11] = dose: 400.0 mg/kg/injection, schedule: Q01DX001 (ip), vehicle: saline
[12] = dose: 50.0 mg/kg/injection, schedule: Q01DX009 (ip), vehicle: saline
[13] = dose: 100.0 mg/kg/injection, schedule: Q01DX009 (ip), vehicle: saline
[14] = dose: 100.0 mg/kg/injection, schedule: Q04DX003 (ip), vehicle: saline
[15] = dose: 12.5 mg/kg/injection, schedule: Q04DX002 (ip), vehicle: Klucel (hydroxypropylcellulose) (HPC)
[16] = dose: 100.0 mg/kg/injection, schedule: Q04DX002 (ip), vehicle: saline with Tween-80
[17] = dose: 200.0 mg/kg/injection, schedule: Q04DX002 (ip), vehicle: saline with Tween-80

Measured: T/C

Cc1ccc(-n2c(O)c(N=Nc3ccccc3C)c(=O)n(-c3ccc(Cl)cc3)c2=S)cc1
inactive: dose: 50.0 mg/kg/injection, schedule: Q01DX001 (ip), vehicle: Klucel (hydroxypropylcellulose) (HPC) 104 % of control | dose: 100.0 mg/kg/injection, schedule: Q01DX001 (ip), vehicle: Klucel (hydroxypropylcellulose) (HPC) 102 % of control | dose: 200.0 mg/kg/injection, schedule: Q01DX001 (ip), vehicle: Klucel (hydroxypropylcellulose) (HPC) 102 % of control

CC(C)(Br)C(=O)c1ccc(-c2ccccc2)cc1
inactive: [1] 101 % of control | [2] 101 % of control | dose: 100.0 mg/kg/injection, schedule: Q01DX009 (ip), vehicle: Klucel (hydroxypropylcellulose) (HPC) 89 % of control | [3] 98 % of control | [4] 100 % of control | dose: 200.0 mg/kg/injection, schedule: Q01DX009 (ip), vehicle: Klucel (hydroxypropylcellulose) (HPC) 87 % of control | [5] 95 % of control | [6] 94 % of control | dose: 400.0 mg/kg/injection, schedule: Q01DX009 (ip), vehicle: Klucel (hydroxypropylcellulose) (HPC) 92 % of control | [7] 92 % of control | [8] 91 % of control

CCOc1nc(OCC)c2[nH]cnc2n1
inactive: [9] 101 % of control | [10] 96 % of control | [11] 102 % of control

CC(C)(C)SCCO
inactive: dose: 100.0 mg/kg/injection, schedule: Q04DX002 (ip), vehicle: saline 105 % of control | dose: 200.0 mg/kg/injection, schedule: Q04DX002 (ip), vehicle: saline 99 % of control | dose: 400.0 mg/kg/injection, schedule: Q04DX002 (ip), vehicle: saline 96 % of control

CN1CCC=C(CN2c3ccccc3Sc3ccccc32)C1
inactive: dose: 25.0 mg/kg/injection, schedule: Q01DX009 (ip), vehicle: saline 109 % of control | dose: 25.0 mg/kg/injection, schedule: Q04DX003 (ip), vehicle: saline 101 % of control | [12] 119 % of control | dose: 50.0 mg/kg/injection, schedule: Q04DX003 (ip), vehicle: saline 105 % of control | [13] 124 % of control | [14] 103 % of control and 105 % of control

NC(C(=O)O)c1ccccc1 (centres undefined)
inactive: [15] 96 % of control | dose: 25.0 mg/kg/injection, schedule: Q04DX002 (ip), vehicle: Klucel (hydroxypropylcellulose) (HPC) 104 % of control | dose: 50.0 mg/kg/injection, schedule: Q04DX002 (ip), vehicle: Klucel (hydroxypropylcellulose) (HPC) 96 % of control

COc1ccc(C(=O)NCCBr)cc1[N+](=O)[O-]
inactive: [9] 108 % of control | [4] 97 % of control | [10] 103 % of control | [6] 101 % of control | [11] 98 % of control | [8] 111 % of control

O=C(OC1CCOCC1OC(=O)c1ccccc1)c1ccccc1 (centres undefined)
inactive: [16] 100 % of control | [17] 100 % of control | dose: 400.0 mg/kg/injection, schedule: Q04DX002 (ip), vehicle: saline with Tween-80 96 % of control

Cc1ccc(C#CP(C#Cc2ccc(C)cc2)C#Cc2ccc(C)cc2)cc1
inactive: dose: 100.0 mg/kg/injection, schedule: Q01DX009 (ip), vehicle: saline with Tween-80 88 % of control

CO[C@@H]([CH2][Hg][S]C#N)[C@@H]([CH2][Hg][S]C#N)OC
inactive: dose: 6.25 mg/kg/injection, schedule: Q01DX009 (ip), vehicle: saline sonified 94 % of control | dose: 12.5 mg/kg/injection, schedule: Q01DX009 (ip), vehicle: saline sonified 90 % of control | dose: 12.5 mg/kg/injection, schedule: Q04DX003 (ip), vehicle: saline sonified 97 % of control | dose: 25.0 mg/kg/injection, schedule: Q01DX009 (ip), vehicle: saline sonified 93 % of control | dose: 25.0 mg/kg/injection, schedule: Q04DX003 (ip), vehicle: saline sonified 88 % of control

COC(=O)c1ccc(OC)c(-c2cc(OC)ccc2C(=O)OC)c1
inactive: dose: 100.0 mg/kg/injection, schedule: Q04DX002 (ip), vehicle: Klucel (hydroxypropylcellulose) (HPC) 112 % of control | dose: 200.0 mg/kg/injection, schedule: Q04DX002 (ip), vehicle: Klucel (hydroxypropylcellulose) (HPC) 101 % of control | dose: 400.0 mg/kg/injection, schedule: Q04DX002 (ip), vehicle: Klucel (hydroxypropylcellulose) (HPC) 104 % of control

O=C(c1ccccc1)N1CC1
inactive: [1] 95 % of control | [2] 93 % of control | [3] 86 % of control | [5] 88 % of control | [7] 90 % of control

CCCCOP(=O)(OCCCC)SCl
inactive: [16] 95 % of control | [17] 92 % of control

CCNC(=O)N(O)C1(C#N)CCCCC1
inactive: dose: 100.0 mg/kg/injection, schedule: Q01DX001 (ip), vehicle: other 98 % of control | dose: 200.0 mg/kg/injection, schedule: Q01DX001 (ip), vehicle: other 96 % of control | dose: 400.0 mg/kg/injection, schedule: Q01DX001 (ip), vehicle: other 98 % of control

C#CC(C)(C)NC(=O)NC(C)(C)C
inactive: dose: 100.0 mg/kg/injection, schedule: Q04DX002 (ip), vehicle: gum acacia 112 % of control | dose: 200.0 mg/kg/injection, schedule: Q04DX002 (ip), vehicle: gum acacia 91 % of control | dose: 400.0 mg/kg/injection, schedule: Q04DX002 (ip), vehicle: gum acacia 102 % of control

O=c1[nH]c2nc(Cl)c(Cl)nc2[nH]1
inactive: [12] 98 % of control | [13] 95 % of control and 96 % of control | [14] 94 % of control | dose: 200.0 mg/kg/injection, schedule: Q01DX009 (ip), vehicle: saline 108 % of control and 116 % of control | dose: 200.0 mg/kg/injection, schedule: Q04DX003 (ip), vehicle: saline 105 % of control | dose: 300.0 mg/kg/injection, schedule: Q01DX009 (ip), vehicle: saline 92 % of control | dose: 400.0 mg/kg/injection, schedule: Q01DX009 (ip), vehicle: saline 86 % of control

CC(=O)NC1C(OC(C)=O)OC(COC(c2ccccc2)(c2ccccc2)c2ccccc2)C(O)C1OC(C)=O (centres undefined)
inactive: dose: 6.25 mg/kg/injection, schedule: Q01DX009 (ip), vehicle: saline with Tween-80 96 % of control | dose: 12.5 mg/kg/injection, schedule: Q01DX009 (ip), vehicle: saline with Tween-80 93 % of control | dose: 25.0 mg/kg/injection, schedule: Q01DX009 (ip), vehicle: saline with Tween-80 93 % of control | dose: 25.0 mg/kg/injection, schedule: Q04DX003 (ip), vehicle: saline with Tween-80 109 % of control | dose: 50.0 mg/kg/injection, schedule: Q01DX009 (ip), vehicle: saline with Tween-80 93 % of control | dose: 50.0 mg/kg/injection, schedule: Q04DX003 (ip), vehicle: saline with Tween-80 121 % of control | dose: 200.0 mg/kg/injection, schedule: Q04DX003 (ip), vehicle: saline with Tween-80 91 % of control | dose: 400.0 mg/kg/injection, schedule: Q04DX003 (ip), vehicle: saline with Tween-80 88 % of control

COC(=O)[CH]([Hg][CH](C(=O)OC)C(=O)OC)C(=O)OC
inactive: dose: 3.12 mg/kg/injection, schedule: Q04DX002 (ip), vehicle: Klucel (hydroxypropylcellulose) (HPC) 88 % of control | dose: 6.25 mg/kg/injection, schedule: Q04DX002 (ip), vehicle: Klucel (hydroxypropylcellulose) (HPC) 98 % of control | [15] 91 % of control

Fc1cccc2ccc(Br)cc12
inactive: [4] 100 % of control | [6] 100 % of control | [8] 106 % of control

Cc1cc(C)nc(/N=C(/N)Nc2ccc(S(=O)(=O)NC(=O)Nc3ccccc3)cc2)n1
inactive: [9] 92 % of control | [10] 98 % of control | [11] 102 % of control
